Data on five molecules can be found in ChEMBL document CHEMBL1201862, “PubChem BioAssay data set” (2004).

Assay [1] can be described thus: OVCAR4 cell viability loss – plate reader, dry powder, SA11, cytotoxicity control for PAX8 inhibitor project, dose response (AID 743150). It is filed as functional, cell-based. The following applies: OVCAR-4.
The subject of assay [2] is BJ. Nature of the assay: BJ-TERT fibroblast viability loss – cell-based, RAS-independent, luminescence, dose response (AID 1933). It is filed as functional. The conditions noted are these: Homo sapiens.
Assay [3] in a line: IGROV1 cell killing – plate reader, dry powder samples, PAX8 inhibitor project, dose response (AID 743043). The conditions noted are these: IGROV-1. Format: functional, cell-based.
Assay [4] can be described thus: Luminescence Cell-Based Dose Response HTS to Identify Inhibitors of 5'UTR Stem-Loop Driven Prion Protein mRNA Translation in H4 Neuroglioblastoma Cells. [Related pubchem assays: 1827 (Project Summary), 1813 (Primary HTS)]. Format: functional.
The nature of assay [5]: A2780 cell killing – plate reader, dry powder samples, cytotoxicity control, dose response (AID 743046). It is filed as functional, cell-based.
Assay [6] can be described thus: PAX8-dependent cell viability loss – plate reader, dry powder, dose response (AID 743049). Format: functional, cell-based.
The nature of assay [7]: COV434 cell viability loss – plate reader, dry powder, SA7, cytotoxicity control for PAX8 inhibitor project, dose response (AID 743145). It is filed as functional, cell-based.
The subject of assay [8] is BJ. Kind of assay: growth inhibition of engineered Ras-driven BJ cells – cell-based, alamar blue fluorescence, cherrypicked samples, dose response (AID 2631).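 Also: confirmatory dose-response assay in RAS-dependent BJ fibroblasts engineered with TERT, LT and ST, with cytotoxicity read by fluorescence.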 Format: functional. The conditions noted are these: Homo sapiens.
Assay [9] in a line: COV362 cell viability loss – plate reader, dry powder, SA12, cytotoxicity control for PAX8 inhibitor project, dose response (AID 743144). It is filed as functional, cell-based.
The subject of assay [10] is BJ. Kind of assay: BJ-TERT-LT-ST fibroblast viability loss – cell-based, RAS-independent, luminescence, dose response (AID 1935).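 Also: BJ fibroblasts immortalized with TERT plus LT and ST oncogenes.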 Format: functional. The following applies: Homo sapiens.
A short description of assay [11]: inhibitors acting on PAX2 in cells – cell-based, plate reader, dry powder samples, selectivity assay for PAX8 inhibitor project, dose response (AID 743048).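 Also: HEK293 cells carrying a WT1 promoter luciferase reporter driven by expressed Pax2; potency is for inhibition of Pax2 driven reporter signal.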 It is filed as functional.
The nature of assay [12]: OV-90 cell viability loss – plate reader, dry powder, SA8, PAX8 inhibitor project, dose response (AID 743149). It is filed as functional, cell-based.
Assay [13] is described as follows: luciferase reporter signal suppression in cells – H4 neuroglioma cells, luminescence, dose response (AID 1990). It is filed as functional, cell-based.
Assay [14] has as its system BJ. Nature of the assay: cells. It is filed as functional, cell-based. The following applies: Homo sapiens.
Assay [15] can be described thus: DRD fibroblast viability loss – cell-based, non-viral oncogenic, luminescence, dose response (AID 1934). It is filed as functional. The conditions noted are these: Homo sapiens.
The target of another assay is Paired box protein Pax-8 (Homo sapiens, UniProt Q06710). Kind of assay: PAX8 transcriptional activity inhibition in RMG-I – RMG-I cells, luciferase, cherry-pick, dose response (AID 687027).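 Also: luciferase reporter driven by Pax8 target thyroperoxidase promoter measured by SteadyGlo luminescence.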 It is filed as functional, cell-based.
A short description of assay [16]: OVCAR-3 cell viability loss – plate reader, dry powder samples, PAX8 inhibitor project, dose response (AID 743044). Format: functional, cell-based.
Assay [17] is described as follows: alpha-synuclein stem-loop luciferase translation blockers – H4 neuroglioma cells, luminescence, confirmation (AID 1988). Format: functional, cell-based.
The nature of assay [18]: toxicity toward immortalized ovarian surface epithelium – cell-based, plate reader, dry powder samples, cytotoxicity control for PAX8 inhibitor project, dose response (AID 743045). Format: functional.
Assay [19] is described as follows: PAX5 cellular inhibition readout – cell-based, plate reader, dry powder samples, selectivity assay for PAX8 inhibitor project, dose response (AID 743047).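 Also: HEK293 cells carrying a Pax5 driven CD19 promoter luciferase reporter; potency of inhibitors that lower reporter luminescence.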 Format: functional.
The target of assay [20] is T1, DNA repair protein RAD52 homolog (Homo sapiens, UniProt P43351).
T1 sequence (P43351 whole entry): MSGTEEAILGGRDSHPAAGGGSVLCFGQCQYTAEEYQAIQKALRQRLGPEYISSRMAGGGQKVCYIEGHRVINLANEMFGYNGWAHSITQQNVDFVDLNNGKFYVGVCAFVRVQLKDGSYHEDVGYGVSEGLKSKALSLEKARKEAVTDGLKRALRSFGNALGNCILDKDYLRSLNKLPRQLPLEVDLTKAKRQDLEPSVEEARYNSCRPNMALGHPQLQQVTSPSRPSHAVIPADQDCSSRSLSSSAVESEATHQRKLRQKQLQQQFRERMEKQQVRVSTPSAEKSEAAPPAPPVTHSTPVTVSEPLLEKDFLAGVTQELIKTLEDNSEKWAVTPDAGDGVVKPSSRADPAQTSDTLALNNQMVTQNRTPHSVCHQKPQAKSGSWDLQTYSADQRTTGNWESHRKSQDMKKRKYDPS
It is filed as functional, biochemical.

Assay [21] can be described thus: viability loss in HepG2 liver cells – cell-based, ATP luminescence, cherry-pick, set 6, cytotoxicity control, dose response (AID 1053125). It is filed as functional.
A short description of a further assay: cells. The following applies: HEK293.
Assay [22] can be described thus: IC50 of Artemis nuclease activity blockers – biochemical, fluorescence intensity, dose response (AID 720701).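 Also: Artemis endonuclease enzyme.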 It is filed as functional.
The target of another assay is T2, Aminopeptidase N (Plasmodium falciparum FcB1/Columbia, UniProt O96935).
T2 sequence (O96935 whole entry): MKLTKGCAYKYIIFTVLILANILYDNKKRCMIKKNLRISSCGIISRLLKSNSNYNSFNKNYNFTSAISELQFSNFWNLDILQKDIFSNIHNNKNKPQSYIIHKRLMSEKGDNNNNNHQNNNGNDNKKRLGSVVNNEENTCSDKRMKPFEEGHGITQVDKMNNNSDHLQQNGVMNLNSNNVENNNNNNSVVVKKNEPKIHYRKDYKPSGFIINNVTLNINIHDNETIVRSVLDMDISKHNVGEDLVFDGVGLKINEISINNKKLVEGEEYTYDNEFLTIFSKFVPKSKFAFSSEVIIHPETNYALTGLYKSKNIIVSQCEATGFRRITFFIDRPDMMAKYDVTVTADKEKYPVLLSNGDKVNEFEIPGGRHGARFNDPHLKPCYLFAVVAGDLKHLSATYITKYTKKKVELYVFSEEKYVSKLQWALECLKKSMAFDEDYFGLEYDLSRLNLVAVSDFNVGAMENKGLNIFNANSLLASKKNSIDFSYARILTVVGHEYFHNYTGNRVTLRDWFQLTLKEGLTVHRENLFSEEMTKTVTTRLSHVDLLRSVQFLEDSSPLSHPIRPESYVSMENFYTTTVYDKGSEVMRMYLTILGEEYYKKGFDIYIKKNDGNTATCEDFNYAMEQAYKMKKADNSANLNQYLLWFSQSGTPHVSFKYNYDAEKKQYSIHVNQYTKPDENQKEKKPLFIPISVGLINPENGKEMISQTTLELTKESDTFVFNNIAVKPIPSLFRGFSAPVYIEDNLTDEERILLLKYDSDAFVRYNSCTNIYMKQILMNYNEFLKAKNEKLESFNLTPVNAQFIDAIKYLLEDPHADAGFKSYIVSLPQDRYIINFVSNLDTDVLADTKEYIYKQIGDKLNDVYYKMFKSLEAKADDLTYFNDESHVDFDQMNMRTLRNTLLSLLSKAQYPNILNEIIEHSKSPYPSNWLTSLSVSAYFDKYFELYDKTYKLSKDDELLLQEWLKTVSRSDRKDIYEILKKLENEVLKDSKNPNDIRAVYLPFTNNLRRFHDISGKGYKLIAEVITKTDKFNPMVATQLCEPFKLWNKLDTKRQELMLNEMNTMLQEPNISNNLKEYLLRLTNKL
Nature of the assay: malaria alanyl aminopeptidase activity blockers – biochemical, fluorogenic H-Leu-NHMec substrate, 1536-well (AID 1445). Details: species or system Plasmodium falciparum 3D7, 3D7.

The target in the next assay is T3, Leucine aminopeptidase (Plasmodium falciparum 3D7, UniProt Q8IL11).
T3 sequence (Q8IL11 whole entry): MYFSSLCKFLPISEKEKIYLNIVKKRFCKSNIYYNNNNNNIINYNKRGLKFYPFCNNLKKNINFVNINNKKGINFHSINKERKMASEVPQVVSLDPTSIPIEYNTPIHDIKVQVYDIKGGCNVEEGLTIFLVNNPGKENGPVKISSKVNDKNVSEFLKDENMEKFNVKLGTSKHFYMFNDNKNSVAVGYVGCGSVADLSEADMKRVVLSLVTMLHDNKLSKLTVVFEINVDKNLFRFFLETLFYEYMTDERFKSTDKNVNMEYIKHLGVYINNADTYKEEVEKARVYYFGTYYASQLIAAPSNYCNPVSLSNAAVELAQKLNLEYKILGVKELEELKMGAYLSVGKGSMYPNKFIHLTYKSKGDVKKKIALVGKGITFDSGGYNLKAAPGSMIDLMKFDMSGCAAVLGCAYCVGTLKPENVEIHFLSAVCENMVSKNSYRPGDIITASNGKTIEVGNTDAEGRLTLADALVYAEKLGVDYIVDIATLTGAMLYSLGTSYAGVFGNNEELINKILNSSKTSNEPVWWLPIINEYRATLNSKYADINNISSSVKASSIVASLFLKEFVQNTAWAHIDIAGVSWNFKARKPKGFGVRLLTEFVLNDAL
Kind of assay: P. falciparum M17LAP inhibitors, primary screen, biochemical, fluorogenic H-Leu-NHMec substrate, 1536-well (AID 1619). Format: functional.

Assay [23] in a line: Trypanosoma cruzi growth suppression in host cells – NIH3T3 host cells, beta-gal luminescence, confirmation (AID 2044).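 Also: intracellular parasites grown in NIH/3T3 mouse fibroblasts as host cells; luminescent beta-galactosidase reporter signal from transgenic T. cruzi replicating inside host cells; inhibitors lower the luminescence signal.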 It is filed as functional, cell-based.
The target of assay [24] is COUP transcription factor 2 (Homo sapiens, UniProt P24468). Kind of assay: Luminescence-based cell-based high throughput dose response assay to identify inhibitors of COUP-TFII (NR2F2). It is filed as functional.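 Also: HEK293 cells transiently cotransfected with COUP-TFII expression vector and reporter; luciferase reporter luminescence driven by COUP-TFII from the pX2-168 reporter plasmid.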
A short description of assay [25]: NIH3T3 cell viability loss – ATP luminescence, mouse fibroblasts, counter-screen, dose response (AID 2010).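 Also: cells exposed to compound for about 90 hours before reading.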 It is filed as functional, cell-based.
For assay [26], the target named is T4, Interleukin-8 (Homo sapiens, UniProt P10145). Nature of the assay: Dose Response confirmation of uHTS small molecule hits for cystic fibrosis induced NFkb Inhibitors in a PAF-induced IL8 counterscreen. It is filed as functional. The following applies: read-out: IC50_Mean. (In general: Counterscreens check selectivity or assay interference.)
Assay [27] can be described thus: Shn3 3'UTR reporter signal decrease – cell-based, Clone20 osteoblasts, firefly luciferase, cherry-pick, set 2, Schnurri-3 inhibitor project, dose response (AID 720490).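 Also: actives lower the luminescence signal as inhibitors.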 It is filed as functional.
Assay [28] addresses T4, Interleukin-8. Kind of assay: Dose Response confirmation of uHTS small molecule hits for cystic fibrosis induced NFkb Inhibitors in a TNFa-induced IL8 counterscreen. Format: functional. The following applies: read-out: IC50_Mean.
For another assay, the system named is HEK293. Kind of assay: EBV LMP1 TES2 canonical NF-kB signalling blockers – cell-based, HEK293, luciferase, cherry-pick, dose response (AID 588343). Format: functional. The conditions noted are these: Homo sapiens.
Assay [29] in a line: reduction of Shn3 3'UTR-driven luciferase in osteoblasts – cell-based, Clone20 osteoblasts, firefly luciferase, cherry-picked, dose response (AID 624132).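 Also: firefly luciferase luminescence from reporter carrying the Shn3 3'UTR in osteoblasts.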 It is filed as functional.
Assay [30] is described as follows: non-specific 3'UTR reporter inhibition in Clone20-Shn3RL – cell-based, Renilla luciferase, cherry-picked, counter-screen for Shn3 inhibitor project, dose response (AID 624133). Format: functional.
Assay [31] is described as follows: loss of viability in HepG2 cells – cell-based, CellTiter-Glo, cherry-picked, cytotoxicity control for Shn3 inhibitor project, dose response (AID 624134). Format: functional. (In general: In ATP-based viability assays light output follows the ATP content of the culture.)
A short description of assay [32]: EF1alpha-driven Renilla reporter with control 3'UTR suppression – Clone20-Shn3RL cells, dual-Glo, cherry-pick, set 2, counter-screen for Shn3 3'UTR targeting project, dose response (AID 720724). It is filed as functional, cell-based. The following applies: Dual-Go Shn3RL.

The source made the active and inactive calls. Where only a bound is given, the exact number is not on record here.

T4 sequence (P10145 whole entry): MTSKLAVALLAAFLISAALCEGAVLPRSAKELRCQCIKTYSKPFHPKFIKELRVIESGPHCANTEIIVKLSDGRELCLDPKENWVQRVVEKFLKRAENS
Sequence of Paired box protein Pax-8 (Q06710 whole entry): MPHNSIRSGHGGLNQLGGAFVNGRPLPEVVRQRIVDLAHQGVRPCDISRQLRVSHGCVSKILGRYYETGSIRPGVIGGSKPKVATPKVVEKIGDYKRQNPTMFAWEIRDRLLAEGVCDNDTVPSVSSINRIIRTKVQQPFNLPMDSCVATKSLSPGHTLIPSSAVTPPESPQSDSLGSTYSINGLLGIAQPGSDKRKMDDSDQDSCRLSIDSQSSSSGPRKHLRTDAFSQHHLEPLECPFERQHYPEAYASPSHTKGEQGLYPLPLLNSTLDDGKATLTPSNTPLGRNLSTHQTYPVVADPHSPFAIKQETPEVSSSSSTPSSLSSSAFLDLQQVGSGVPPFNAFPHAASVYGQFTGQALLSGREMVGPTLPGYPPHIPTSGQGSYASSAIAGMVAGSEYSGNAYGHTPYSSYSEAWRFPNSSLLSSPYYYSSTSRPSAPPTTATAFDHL
Sequence of COUP transcription factor 2 (P24468 whole entry): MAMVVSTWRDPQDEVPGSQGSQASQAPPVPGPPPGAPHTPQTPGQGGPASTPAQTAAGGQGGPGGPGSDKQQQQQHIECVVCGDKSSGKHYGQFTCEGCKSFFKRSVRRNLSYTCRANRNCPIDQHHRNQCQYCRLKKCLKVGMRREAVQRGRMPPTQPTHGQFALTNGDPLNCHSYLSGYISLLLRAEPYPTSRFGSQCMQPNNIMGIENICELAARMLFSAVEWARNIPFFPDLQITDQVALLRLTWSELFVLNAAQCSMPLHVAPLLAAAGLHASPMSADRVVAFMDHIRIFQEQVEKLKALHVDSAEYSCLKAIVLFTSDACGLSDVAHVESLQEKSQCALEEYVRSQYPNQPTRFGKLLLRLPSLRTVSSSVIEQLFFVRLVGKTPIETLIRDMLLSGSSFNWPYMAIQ

The AC50 is the midpoint of the concentration-response curve, whichever way the signal moves. What is called EC50 is the concentration that produces a half-maximal response. With `CCOc1ccc2c(c1)C(C)=CC(C)(C)N2S(=O)(=O)c1ccc(NC(C)=O)cc1`, the AC50 in assay [1] was 1.83 µM (active); in assay [3], 15.9 µM (active); in assay [5], 4.06 µM (active); in assay [6], 12.1 µM (active); in assay [7] it was 1.53 µM (active); in [9], 4.1 µM (active). In addition, the AC50 was 31.8 µM (active) in [11]; 2.6 µM (active) in [12]; 1.61 µM (active) at Paired box protein Pax-8; 41.1 µM (active) in assay [16]; 2.54 µM (active) in assay [18]; 89.2 µM (active) in [19]. The EC50 was 0.642 µM (active) with BJ [2]; 0.162 µM (active) in [4]; < 0.104 µM (active) with BJ [8]; 0.428 µM (inconclusive) in the assay with BJ [10]; 0.199 µM (active) in [13]; 1.54 µM (active) in the assay on BJ [14]. Besides, the EC50 is 0.722 µM (active) in [15] and 0.129 µM (active) in assay [17].
For `Cc1cccn2c(=O)c3cc(C(=O)NC(C)c4ccccc4)c(=N)n(CCCn4ccnc4)c3nc12` (configuration not stated), the AC50 in [20] was 4.29 µM (active); in [21], > 52 µM (inactive); in “cells” it was > 52 µM (inactive).
In the case of `O=C(Cc1ccsc1-c1ccccc1)NO`, the IC50 was 1.4 µM (active) in assay [22], 10.4 µM (active) at Aminopeptidase N and 43.4 µM (active) at Leucine aminopeptidase.
Consider `Cc1c(C(=O)N2CCN(Cc3ccc4c(c3)OCO4)CC2)sc2ncnc(N3CCN(c4ccccc4F)CC3)c12`, for which the EC50 was 0.487 µM (active) in [23] and > 60 µM (not active) in [25]. Moreover, the IC50 in [24] is 6.85 µM (active).
`Cc1ccccc1C(=O)N1CCN(c2ccc(NC(=O)CSc3ccc(Cl)cc3)cc2)CC1`: the IC50 at Interleukin-8 [26] is 1.6 µM (active); on Interleukin-8 [28], 39.9 µM (inactive). In addition, the half-maximal activity concentration (AC50) in assay [27] is 6.91 µM (active); with HEK293, 0.378 µM (active); in assay [29], 4.23 µM (active); in assay [30], 25.2 µM (active); in [31], 44.1 µM (active); in assay [32], 38.8 µM (active).
